Measured values reported in PubChem BioAssay (NCI).
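Dose response: 5 concentrations. Exposure: 48 h. Format: 96-well plates. Endpoint: linear interpolation; highest concentration if not reached. At the TGI there is no net growth.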

Tests used:
Assay in all cases: inhibition of tumour cell growth, NCI panel, 48 h
[1] = tested on: HCT-15 colon
[2] = tested on: IGROV1 ovarian
[3] = tested on: K-562 leukemia
[4] = tested on: LOX IMVI melanoma
[5] = tested on: MDA-MB-231 breast
[6] = tested on: OVCAR-5 ovarian
[7] = tested on: SK-MEL-2 melanoma
[8] = tested on: SK-MEL-28 melanoma
[9] = tested on: SNB-19 CNS
[10] = tested on: SW-620 colon

`NC(=S)NNC(=S)NC(=O)c1ccco1` showed a TGI [1] greater than 10 µM, a TGI [2] greater than 10 µM and a TGI [3] greater than 10 µM. The TGI [4] was greater than 10 µM, the TGI [5] was greater than 10 µM and the TGI [6] was greater than 10 µM. It also gave a TGI [7] greater than 10 µM, a TGI [8] greater than 10 µM and a TGI [9] greater than 10 µM. It also gave a TGI [10] greater than 10 µM.
`COc1cc2c(cc1OC)C(=O)/C(=C/c1ccc(O)cc1)CC2` gave a TGI [1] greater than 10 µM, a TGI [2] greater than 10 µM and a TGI [3] greater than 10 µM. It also gave a TGI [4] greater than 10 µM, a TGI [5] greater than 10 µM and a TGI [6] greater than 10 µM. It also gave a TGI [7] greater than 10 µM, a TGI [8] greater than 10 µM and a TGI [9] greater than 10 µM. It also gave a TGI [10] greater than 10 µM.
For `O=c1oc2cccnc2n1CCCCN1CCN(c2ccccc2)CC1`, the TGI [1] was greater than 100 µM, the TGI [2] was greater than 100 µM and the TGI [3] was greater than 100 µM. It also gave a TGI [4] greater than 100 µM, a TGI [5] greater than 100 µM and a TGI [6] greater than 100 µM. The TGI [7] was greater than 100 µM, the TGI [8] was greater than 100 µM and the TGI [9] was greater than 100 µM. The TGI [10] was greater than 100 µM.
`CCn1c(=O)c2c3ccc(OC(C)=O)cc3[nH]c2c2ccc(OC(C)=O)cc21` showed a TGI [1] greater than 100 µM, a TGI [2] greater than 100 µM and a TGI [3] greater than 100 µM. It also gave a TGI [5] greater than 100 µM, a TGI [6] greater than 100 µM and a TGI [8] greater than 100 µM. The TGI [9] was greater than 100 µM and the TGI [10] was greater than 100 µM.
For `CC(=Nc1cc(Cl)cc(Cl)c1)c1ccncc1`, the TGI [1] was greater than 100 µM, the TGI [2] was greater than 100 µM and the TGI [3] was greater than 100 µM. It also gave a TGI [4] greater than 100 µM, a TGI [5] greater than 100 µM and a TGI [6] greater than 100 µM. The TGI [7] was greater than 100 µM, the TGI [8] was greater than 100 µM and the TGI [9] was greater than 100 µM. For the same compound, the TGI [10] was greater than 100 µM.
Compound `CCOC(=O)CCC(NC(=O)OCc1ccccc1)C(=O)NC(CCC(=O)OCC)C(=O)NC(CCC(=O)OCC)C(=O)NNC(=O)OC(C)(C)C` (configuration not stated) has a TGI [1] greater than 100 µM, a TGI [2] greater than 100 µM and a TGI [3] greater than 100 µM. For the same compound, the TGI [5] was greater than 100 µM, the TGI [6] was greater than 100 µM and the TGI [7] was greater than 100 µM. It also gave a TGI [8] greater than 100 µM, a TGI [9] greater than 100 µM and a TGI [10] greater than 100 µM.
Work on `O=c1c2cc(Br)ccc2ncn1COCc1ccccc1` yielded a TGI [1] greater than 100 µM, a TGI [2] greater than 100 µM and a TGI [3] greater than 100 µM. For the same compound, the TGI [4] was greater than 100 µM, the TGI [6] was greater than 100 µM and the TGI [7] was greater than 100 µM. The TGI [8] was greater than 100 µM, the TGI [9] was greater than 100 µM and the TGI [10] was greater than 100 µM.
For `C=C(CCOC)CCC1CCCCC(=C)[C@H]1O` (some centres not stated), the TGI [1] was greater than 100 µM, the TGI [2] was greater than 100 µM and the TGI [3] was greater than 100 µM. For the same compound, the TGI [5] was greater than 100 µM, the TGI [6] was greater than 100 µM and the TGI [7] was greater than 100 µM. It also gave a TGI [8] greater than 100 µM, a TGI [9] greater than 100 µM and a TGI [10] greater than 100 µM.
With `C[C@]12CCC(=O)C=C1CC[C@@H]1[C@@H]2[C@@H](O)C[C@@]2(C)[C@H]1CC[C@]2(O)C(=O)COC(=O)CCC1CCCC1` the TGI [1] was greater than 100 µM, the TGI [2] was greater than 100 µM and the TGI [4] was greater than 100 µM. The TGI [6] was greater than 100 µM, the TGI [8] was greater than 100 µM and the TGI [9] was greater than 100 µM. It also gave a TGI [10] greater than 100 µM.
Compound `N#C/C(C(=O)Nc1ccccc1)=C(/N)N1CCCCC1` has a TGI [1] greater than 100 µM, a TGI [2] greater than 100 µM and a TGI [3] greater than 100 µM. The TGI [4] was greater than 100 µM, the TGI [6] was greater than 100 µM and the TGI [7] was greater than 100 µM. It also gave a TGI [8] greater than 100 µM, a TGI [9] greater than 100 µM and a TGI [10] greater than 100 µM.
In the case of `O=c1c(O)cccn1C1OC(CO)C(O)C1O` (configuration not stated), the TGI [1] was greater than 100 µM, the TGI [2] was greater than 100 µM and the TGI [3] was greater than 100 µM. The TGI [4] was greater than 100 µM, the TGI [6] was greater than 100 µM and the TGI [7] was greater than 100 µM. For the same compound, the TGI [8] was greater than 100 µM and the TGI [9] was greater than 100 µM.
Work on `Cc1ccc(/C=N\NC(=O)c2ccncc2)s1` yielded a TGI [1] greater than 100 µM, a TGI [2] greater than 100 µM and a TGI [3] greater than 100 µM. It also gave a TGI [5] greater than 100 µM, a TGI [6] greater than 100 µM and a TGI [7] greater than 100 µM. For the same compound, the TGI [8] was greater than 100 µM, the TGI [9] was greater than 100 µM and the TGI [10] was greater than 100 µM.
With `CC1(C)C=[N+]([O-])C(C)(C)N1O` the TGI [1] was greater than 10 µM, the TGI [3] was greater than 10 µM and the TGI [5] was greater than 10 µM. It also gave a TGI [6] greater than 10 µM, a TGI [7] greater than 10 µM and a TGI [9] greater than 10 µM. For the same compound, the TGI [10] was greater than 10 µM.
In the case of `COc1cccc(C23CCCC(C2)N(C)CC3OC(=O)c2ccccc2)c1OC` (configuration not stated), the TGI [1] was 72.7 µM, the TGI [2] was 37.4 µM and the TGI [3] was greater than 100 µM. For the same compound, the TGI [4] was 45.2 µM, the TGI [6] was greater than 100 µM and the TGI [7] was greater than 100 µM. It also gave a TGI [8] of 87.8 µM, a TGI [9] greater than 100 µM and a TGI [10] greater than 100 µM.
`N#C/C(=C1/c2cc([N+](=O)[O-])ccc2-c2c1cc([N+](=O)[O-])cc2[N+](=O)[O-])N1CCCCC1` gave a TGI [1] greater than 100 µM, a TGI [2] greater than 100 µM and a TGI [3] greater than 100 µM. The TGI [5] was greater than 100 µM, the TGI [6] was greater than 100 µM and the TGI [7] was greater than 100 µM. It also gave a TGI [8] greater than 100 µM, a TGI [9] greater than 100 µM and a TGI [10] greater than 100 µM.
Work on `CC(C#N)N(CCc1ccccc1)C(=O)c1ccccc1` (configuration not stated) yielded a TGI [1] greater than 100 µM, a TGI [2] greater than 100 µM and a TGI [3] greater than 100 µM. It also gave a TGI [4] greater than 100 µM, a TGI [5] greater than 100 µM and a TGI [6] greater than 100 µM. The TGI [7] was greater than 100 µM, the TGI [9] was greater than 100 µM and the TGI [10] was greater than 100 µM.
Work on `COC(=O)[C@@]1(C)CCC[C@]2(C(=O)O)C3Cc4occc4[C@H](C)[C@@H]3CCC21` (some centres not stated) yielded a TGI [2] greater than 100 µM, a TGI [3] greater than 100 µM and a TGI [5] greater than 100 µM. For the same compound, the TGI [6] was greater than 100 µM, the TGI [7] was greater than 100 µM and the TGI [8] was greater than 100 µM. For the same compound, the TGI [9] was greater than 100 µM and the TGI [10] was greater than 100 µM.
`CCOC(=O)c1c(N)sc2c1C(C(=O)OCC)CCC2` (configuration not stated) gave a TGI [1] greater than 100 µM, a TGI [2] greater than 100 µM and a TGI [3] greater than 100 µM. For the same compound, the TGI [5] was greater than 100 µM, the TGI [6] was greater than 100 µM and the TGI [7] was greater than 100 µM. The TGI [8] was greater than 100 µM, the TGI [9] was greater than 100 µM and the TGI [10] was greater than 100 µM.
With `O=C1/C(=C/c2ccc(O)cc2)CCC1CNc1ccccc1` (configuration not stated) the TGI [1] was 13.9 µM, the TGI [2] was 25.3 µM and the TGI [3] was 4 µM. The TGI [4] was 22.2 µM, the TGI [5] was 30.9 µM and the TGI [6] was 31.6 µM. It also gave a TGI [8] of 29.9 µM, a TGI [9] of 30.1 µM and a TGI [10] of 7.11 µM.
`O=c1nc2ccc3sc4ccccc4c(=O)c3n2c(=O)[nH]1` showed a TGI [1] greater than 100 µM, a TGI [2] greater than 100 µM and a TGI [3] greater than 100 µM. It also gave a TGI [4] greater than 100 µM, a TGI [5] greater than 100 µM and a TGI [6] greater than 100 µM. For the same compound, the TGI [8] was greater than 100 µM, the TGI [9] was greater than 100 µM and the TGI [10] was greater than 100 µM.
Work on `O=P(O)(O)C=C=C1CCCCC1` yielded a TGI [1] greater than 100 µM, a TGI [2] greater than 100 µM and a TGI [3] greater than 100 µM. The TGI [4] was greater than 100 µM, the TGI [6] was greater than 100 µM and the TGI [7] was greater than 100 µM. It also gave a TGI [8] greater than 100 µM, a TGI [9] greater than 100 µM and a TGI [10] greater than 100 µM.
For `COc1cc(CNC(=S)CCCCCCCCCCC(C)C)ccc1O`, the TGI [1] was greater than 100 µM, the TGI [2] was greater than 100 µM and the TGI [3] was greater than 100 µM. The TGI [4] was greater than 100 µM, the TGI [5] was greater than 100 µM and the TGI [6] was greater than 100 µM. The TGI [8] was greater than 100 µM, the TGI [9] was greater than 100 µM and the TGI [10] was greater than 100 µM.
`COc1ccccc1NC(=S)N/N=C/c1ccccn1` gave a TGI [1] of 29 µM, a TGI [3] greater than 31.6 µM and a TGI [4] of 6.8 µM. For the same compound, the TGI [5] was greater than 60.1 µM, the TGI [6] was greater than 46.4 µM and the TGI [7] was 29.5 µM. For the same compound, the TGI [8] was greater than 46.4 µM, the TGI [9] was greater than 46.4 µM and the TGI [10] was greater than 46.4 µM.
Work on `Cc1nc(Nc2nc3ccccc3[nH]2)nc(Cl)c1CCCl` yielded a TGI [1] greater than 100 µM, a TGI [2] greater than 100 µM and a TGI [3] greater than 100 µM. For the same compound, the TGI [5] was greater than 100 µM, the TGI [7] was greater than 100 µM and the TGI [8] was greater than 100 µM. The TGI [9] was greater than 100 µM and the TGI [10] was greater than 100 µM.
